Measurements reported in US20250197420A1, “MACROCYCLIC COMPOUNDS, COMPOSITIONS, AND METHODS OF USING THEREOF” (Sionna Therapeutics Inc., priority 2022, published 2025).

Key:
[1] = molecular target: T1, Purified recombinant NBD1 (Homo sapiens, UniProt P13569); experiment: Aggregation analysis using differential static light scattering (DSLS): thermal stability of NBD1; type: binding; conditions: NBD1 0.2 mg/ml; Tagg of compound well minus average Tagg of DMSO control wells
T1 construct: Purified recombinant NBD1 was produced using previously described methods; made in house
T1 sequence (P13569 423-646 limits assumed): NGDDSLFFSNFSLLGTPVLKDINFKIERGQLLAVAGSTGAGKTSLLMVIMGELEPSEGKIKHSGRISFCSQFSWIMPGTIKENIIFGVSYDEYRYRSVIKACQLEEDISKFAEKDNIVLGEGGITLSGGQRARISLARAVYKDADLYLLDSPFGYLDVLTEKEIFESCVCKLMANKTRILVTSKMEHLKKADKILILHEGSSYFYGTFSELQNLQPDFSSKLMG
Outline: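 ΔTagg is compound-well aggregation temperature minus the DMSO-control mean, each Tagg being the inflection point of light scattering measured by DSLS during a 1 °C/min ramp up to 70 °C. The protein was purified NBD1 (0.2 mg/ml) in pH 7.6 buffer containing 2 mM ATP, 5 mM MgCl2 and 1% glycerol.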

[2] = tested on: Primary human bronchial epithelial cells from a ΔF508 homozygous CF donor (CF-HBE cells); experiment: TECC24 recording of CFTR-mediated transepithelial chloride transport, AUC fold over benchmark VX-809 @10 μM; type: cell-based; conditions: 48 hours incubation, AUC of forskolin-stimulated IEQ
Method: The effects of a test agent on CFTR-mediated transepithelial chloride transport is measured using TECC24 recording analysis. Test agents are solubilized in DMSO. Solubilized test agents are mixed with incubation medium containing DMEM/F12, Ultroser G (0.5%; Crescent Chemical, catalog #67042), Hyclone Fetal Clone II (2%; GE Healthcare, catalog #SH30066.02), bovine brain extract (0.25%; Lonza, catalog #CC-4098), insulin ([…]), IL-13 (10 ng/mL), hydrocortisone (20 nM), transferrin ([…]), triiodothyronine (500 nM), ethanolamine (250 nM), epinephrine (1.5 μM), phosphoethanolamine (250 nM), and retinoic acid (10 nM). Primary human bronchial epithelial cells from a ΔF508 homozygous CF donor (CF-HBE cells; from University of North Carolina Cystic Fibrosis Tissue Procurement Center), grown on Transwell HTS 24-well cell culture inserts (Costar, catalog #3378), are exposed to test agents or controls dissolved in incubation medium. The CF-HBE cells are cultured at 36.5° C. for 48 hours before TECC24 recordings are performed in the presence or absence of test agent, a positive control or vehicle (DMSO).
Following incubation, the transwell cell culture inserts containing the test agent or control-treated CF-HBE cells are loaded onto a TECC24 apparatus (TECC v7 or MTECC v2; EP Design) to record the transepithelial voltage (VT) and resistance (TEER) using 4 AgCl electrodes per well configured in current-clamp mode. The apical and basolateral bath solutions both contain (in mM) 140 NaCl, 5 KCl, 2 CaCl2), 1 MgCl2, 10 Hepes, and 10 glucose (adjusted to pH 7.4 with NaOH). To inhibit basal Na+ absorption, the ENaC inhibitor benzamil (10 μM) is added to the bath. Then, the adenylate cyclase activator, forskolin (10 μM), is added to the bath to activate CFTR. The forskolin-stimulated Cl− transport is halted by addition of CFTR inhibitor-172 (20 μM) to the bath at the end of the experiment to confirm specificity. VT and TEER recordings are digitally acquired at routine intervals using TECC or MTECC software (EP Design). VT and TEER are transformed into equivalent transepithelial Cl− current (IEQ), and the Area Under the Curve (AUC) of the IEQ time course between forskolin and CFTR inhibitor-172 addition is generated using Excel (Microsoft). Efficacy is expressed as the ratio of the test agent AUC divided by vehicle AUC. EC50s based on AUC are generated using the non-linear regression log(agonist) vs. response function in Prism software (Graphpad) with HillSlope fixed=1.
If a test agent increases the AUC of the forskolin-stimulated IEQ relative to VX-809 in CF-HBE cells, and this increase is inhibited by CFTR inhibitor-172, then the test agent is considered a CFTR corrector. TECC assay efficacy is expressed as the ratio of the test agent AUC divided by VX-809 AUC. As set forth in Table 2 below, a TECC value less than 3 is marked “A”; a value between 3 and 6 is marked “B”; a value between 6 and 20 is marked “C”.

| SMILES | DSLS (ΔTagg) [1] | TECC (test agent AUC divided by VX-809 AUC) [2] |
| --- | --- | --- |
| CN1CC(C)(C)CCCC(C)(c2cccc(CCC(=O)NO)c2)c2cnc([nH]2)-c2cc(ccc2F)Oc2c(F)cc3[nH]ccc3c2CCC1=O (single isomer, unassigned) [Compound 54, 3-[3-(23,29-difluoro-6,10,10,12-tetramethyl-13-oxo-25-oxa-3,12,20,31-tetrazapentacyclo-[24.3.1.12,5.016,24.017,21]hentriaconta-1(30),2,4,16,18,21,23,26,28-nonaen-6-yl)phenyl]propanehydroxamic acid] | A (an ΔTagg value less than or equal to 5 °C is marked “A”) | A (a TECC value less than 3 is marked “A”) |
| CN1CC(C)(C)CCCC(C)(c2cccc(CCC(=O)NO)c2)c2cnc([nH]2)-c2cc(ccc2F)Oc2c(F)cc3[nH]ccc3c2CCC1=O (single isomer, unassigned) [Compound 55, 3-[3-(23,29-difluoro-6,10,10,12-tetramethyl-13-oxo-25-oxa-3,12,20,31-tetrazapentacyclo-[24.3.1.12,5.016,24.017,21]hentriaconta-1(30),2,4,16,18,21,23,26,28-nonaen-6-yl)phenyl]propanehydroxamic acid] | B (a value above 5 °C and less than or equal to 10 °C is marked “B”) | A (a TECC value less than 3 is marked “A”) |
| COCCONC(=O)CCc1cccc(C2(C)CCCC(C)(C)CN(C)C(=O)CCc3c(c(F)cc4[nH]ccc34)Oc3ccc(F)c(c3)-c3ncc2[nH]3)c1 (single isomer, unassigned) [Compound 56, 3-[3-(23,29-difluoro-6,10,10,12-tetramethyl-13-oxo-25-oxa-3,12,20,31-tetrazapentacyclo[24.3.1.12,5.016,24.017,21]hentriaconta-1(30),2,4,16,18,21,23,26,28-nonaen-6-yl)phenyl]-N-(2-methoxyethoxy)propanamide] | A (an ΔTagg value less than or equal to 5 °C is marked “A”) | A (a TECC value less than 3 is marked “A”) |
| COCCONC(=O)CCc1cccc(C2(C)CCCC(C)(C)CN(C)C(=O)CCc3c(c(F)cc4[nH]ccc34)Oc3ccc(F)c(c3)-c3ncc2[nH]3)c1 (single isomer, unassigned) [Compound 57, 3-[3-(23,29-difluoro-6,10,10,12-tetramethyl-13-oxo-25-oxa-3,12,20,31-tetrazapentacyclo[24.3.1.12,5.016,24.017,21]hentriaconta-1(30),2,4,16,18,21,23,26,28-nonaen-6-yl)phenyl]-N-(2-methoxyethoxy)propanamide] | B (a value above 5 °C and less than or equal to 10 °C is marked “B”) | B (a value between 3 and 6 is marked “B”) |
| CN1CC(C)(C)CCCC(C)(c2cccc(CCC(=O)NOCCO)c2)c2cnc([nH]2)-c2cc(ccc2F)Oc2c(F)cc3[nH]ccc3c2CCC1=O (single isomer, unassigned) [Compound 58, 3-[3-(23,29-difluoro-6,10,10,12-tetramethyl-13-oxo-25-oxa-3,12,20,31-tetrazapentacyclo[24.3.1.12,5.016,24.017,21]hentriaconta-1(30),2,4,16,18,21,23,26,28-nonaen-6-yl)phenyl]-N-(2-hydroxyethoxy)propanamide] | A (an ΔTagg value less than or equal to 5 °C is marked “A”) | A (a TECC value less than 3 is marked “A”) |
| CN1CC(C)(C)CCCC(C)(c2cccc(CCC(=O)NOCCO)c2)c2cnc([nH]2)-c2cc(ccc2F)Oc2c(F)cc3[nH]ccc3c2CCC1=O (single isomer, unassigned) [Compound 59, 3-[3-(23,29-difluoro-6,10,10,12-tetramethyl-13-oxo-25-oxa-3,12,20,31-tetrazapentacyclo[24.3.1.12,5.016,24.017,21]hentriaconta-1(30),2,4,16,18,21,23,26,28-nonaen-6-yl)phenyl]-N-(2-hydroxyethoxy)propanamide] | B (a value above 5 °C and less than or equal to 10 °C is marked “B”) | A (a TECC value less than 3 is marked “A”) |
| CON(C)C(=O)CCc1cccc(C2(C)CCCC(C)(C)CN(C)C(=O)CCc3c(c(F)cc4[nH]ccc34)Oc3ccc(F)c(c3)-c3ncc2[nH]3)c1 (single isomer, unassigned) [Compound 60A, 3-[3-(23,29-difluoro-6,10,10,12-tetramethyl-13-oxo-25-oxa-3,12,20,31-tetrazapentacyclo-[24.3.1.12,5.016,24.017,21]hentriaconta-1(30),2,4,16,18,21,23,26,28-nonaen-6-yl)phenyl]-N-methoxy-N-methyl-propanamide] | A (an ΔTagg value less than or equal to 5 °C is marked “A”) | A (a TECC value less than 3 is marked “A”) |
| CON(C)C(=O)CCc1cccc(C2(C)CCCC(C)(C)CN(C)C(=O)CCc3c(c(F)cc4[nH]ccc34)Oc3ccc(F)c(c3)-c3ncc2[nH]3)c1 (single isomer, unassigned) [Compound 60B, 3-[3-(23,29-difluoro-6,10,10,12-tetramethyl-13-oxo-25-oxa-3,12,20,31-tetrazapentacyclo-[24.3.1.12,5.016,24.017,21]hentriaconta-1(30),2,4,16,18,21,23,26,28-nonaen-6-yl)phenyl]-N-methoxy-N-methyl-propanamide] | B (a value above 5 °C and less than or equal to 10 °C is marked “B”) | B (a value between 3 and 6 is marked “B”) |
| CCOC(=O)Cc1cccc(C2(C)CCCC(C)(C)CN(C)C(=O)CCc3c(c(F)cc4[nH]ccc34)Oc3ccc(F)c(c3)-c3ncc2[nH]3)c1 (single isomer, unassigned) [Compound 64A, ethyl 2-[3-(23,29-difluoro-6,10,10,12-tetramethyl-13-oxo-25-oxa-3,12,20,31-tetrazapentacyclo-[24.3.1.12,5.016,24.017,21]hentriaconta-1(30),2,4,16,18,21,23,26,28-nonaen-6-yl)phenyl]acetate] | A (an ΔTagg value less than or equal to 5 °C is marked “A”) | A (a TECC value less than 3 is marked “A”) |
| CCOC(=O)Cc1cccc(C2(C)CCCC(C)(C)CN(C)C(=O)CCc3c(c(F)cc4[nH]ccc34)Oc3ccc(F)c(c3)-c3ncc2[nH]3)c1 (single isomer, unassigned) [Compound 64B, ethyl 2-[3-(23,29-difluoro-6,10,10,12-tetramethyl-13-oxo-25-oxa-3,12,20,31-tetrazapentacyclo-[24.3.1.12,5.016,24.017,21]hentriaconta-1(30),2,4,16,18,21,23,26,28-nonaen-6-yl)phenyl]acetate] | A (an ΔTagg value less than or equal to 5 °C is marked “A”) | B (a value between 3 and 6 is marked “B”) |
| CN1CC(C)(C)CCCC(C)(c2cccc(CC(=O)O)c2)c2cnc([nH]2)-c2cc(ccc2F)Oc2c(F)cc3[nH]ccc3c2CCC1=O (single isomer, unassigned) [Compound 65A, 2-[3-(23,29-difluoro-6,10,10,12-tetramethyl-13-oxo-25-oxa-3,12,20,31-tetrazapentacyclo-[24.3.1.12,5.016,24.017,21]hentriaconta-1(30),2,4,16,18,21,23,26,28-nonaen-6-yl)phenyl]acetic acid] | A (an ΔTagg value less than or equal to 5 °C is marked “A”) | A (a TECC value less than 3 is marked “A”) |
